Results taken from publication PMC5823406, “Vehicle development, pharmacokinetics and toxicity of the anti-invasive agent 4-fluoro-3’,4’,5’-trimethoxychalcone in rodents” (PLoS ONE, 2018).

Assay: Solubility in vehicles, laser nephelometry
Format: physicochemical
Method: The solubility of C16 was tested at 10 and 30 mg/mL for the indicated vehicles using laser nephelometry in 96-well plates (BMG LabTech NEPHELOstar microplate reader, BMG LabTech, USA). Solutions were prepared using solubilizing techniques including sonication, heating up to 37 °C and vortex. Solubility data was categorized as soluble (result ≤ +15 of blank), slightly soluble (result between +15 and +25 of blank) or not soluble (result > +25 of blank).
C16 has low aqueous solubility, which limits the choice of preclinical formulations for in vivo studies. In this work, thirteen vehicles were evaluated for their applicability in single-dose studies (Table 1). For commonly used systems (entries a-e) visual determination of solubility was conducted, while for the more complex systems solubility was assessed by laser nephelometry.

## COc1cc(C(=O)/C=C/c2ccc(F)cc2)cc(OC)c1OC [C16, 4-fluoro-3’,4’,5’-trimethoxychalcone]
10% Cremophor EL / 10% EtOH, 10 mg/mL
  Solubility of C16 in vehicle: Result: Insoluble ^b
10% Cremophor EL / 10% EtOH, 30 mg/mL
  Solubility of C16 in vehicle: Result: Insoluble ^b
10% DMA / 10% EtOH / 20% PG, 10 mg/mL
  Solubility of C16 in vehicle: Result: Insoluble ^b
10% DMA / 10% EtOH / 20% PG, 30 mg/mL
  Solubility of C16 in vehicle: Result: Insoluble ^b
10% Dimethylacetamide (DMA) / 90% PEG 600, 10 mg/mL
  Solubility of C16 in vehicle: Result: Soluble ^b
10% Dimethylacetamide (DMA) / 90% PEG 600, 30 mg/mL
  Solubility of C16 in vehicle: Result: Soluble ^b
10% Solutol HS-15 / 90% PEG 600, 10 mg/mL
  Solubility of C16 in vehicle: Result: Soluble ^b
10% Solutol HS-15 / 90% PEG 600, 30 mg/mL
  Solubility of C16 in vehicle: Result: Soluble ^b
10%DMA / 20%PG / 40% PEG 400, 10 mg/mL
  Solubility of C16 in vehicle: Result: Insoluble ^b
10%DMA / 20%PG / 40% PEG 400, 30 mg/mL
  Solubility of C16 in vehicle: Result: Insoluble ^b
20% PEG 400 / 10% Cremophor EL, 10 mg/mL
  Solubility of C16 in vehicle: Result: Insoluble ^b
20% PEG 400 / 10% Cremophor EL, 30 mg/mL
  Solubility of C16 in vehicle: Result: Insoluble ^b
40% PEG 400 / 10% EtOH, 10 mg/mL
  Solubility of C16 in vehicle: Result: Insoluble ^b
40% PEG 400 / 10% EtOH, 30 mg/mL
  Solubility of C16 in vehicle: Result: Insoluble ^b
100% Corn oil, 10 mg/mL
  Solubility of C16 in vehicle: Result: Insoluble ^b
100% Corn oil, 30 mg/mL
  Solubility of C16 in vehicle: Result: Insoluble ^b
